Assay results published in patent US9440969B2, “Compounds and methods for kinase modulation, and indications therefor” (PLEXXIKON INC., priority 2009, dated 2016).

Assay: Relative solubility by turbidity in aqueous buffers (pH 1.5, 4.5, 6.8, 7.4)
Type: physicochemical
Details: for turbidity threshold (L, M, H) 1.4: pH 1.5 buffer (SGF); for turbidity threshold (L, M, H) 4.5: pH 4.5 buffer (SIF); for turbidity threshold (L, M, H) 6.8: pH 6.8 buffer (SIF); for turbidity threshold (L, M, H) 7.4: pH 7.4 buffer (HEPES)
Method in brief: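 2-fold DMSO dilution series from 25 mM stocks were added to SGF (0.5M NaCl, pH 1.5), SIF (0.05M NaH2PO4, pH 4.5/6.8) or HEPES (10 mM, 150 mM NaCl, pH 7.4). Absorbance at 490, 535 and 650 nm; value is the concentration crossing OD 0.01, averaged over wavelengths. Low <31.3 μM, moderate 31.3–250 μM, high >250 μM.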

Row | SMILES | turbidity threshold (L, M, H) 1.4 | turbidity threshold (L, M, H) 4.5 | turbidity threshold (L, M, H) 6.8 | turbidity threshold (L, M, H) 7.4
1 | CCCS(=O)(=O)Nc1ccc(F)c(C(=O)c2c[nH]c3ncc(-c4ccc5nn(C)cc5c4)cc23)c1F [P-0010, Propane-1-sulfonic acid {2,4-difluoro-3-[5-(2-methyl-2H-indazol-5-yl)-1H-pyrrolo[2,3-b]pyridine-3-carbonyl]-phenyl}-amide] | L (low solubility if the threshold concentration is <31.3 μM) | L (low solubility if the threshold concentration is <31.3 μM) | L (low solubility if the threshold concentration is <31.3 μM) | L (low solubility if the threshold concentration is <31.3 μM)
2 | CCCS(=O)(=O)Nc1ccc(F)c(C(=O)c2c[nH]c3ncc(-c4ccc5cn(C)nc5c4)cc23)c1F [P-0011, Propane-1-sulfonic acid {2,4-difluoro-3-[5-(2-methyl-2H-indazol-6-yl)-1H-pyrrolo[2,3-b]pyridine-3-carbonyl]-phenyl}-amide] | L (low solubility if the threshold concentration is <31.3 μM) | L (low solubility if the threshold concentration is <31.3 μM) | M (moderate solubility if the threshold concentration is 31.3 μM to 250 μM) | L (low solubility if the threshold concentration is <31.3 μM)
3 | CCCS(=O)(=O)Nc1ccc(F)c(C(=O)c2c[nH]c3ncc(-c4ccc5[nH]ccc5c4)cc23)c1F [P-0012, Propane-1-sulfonic acid {2,4-difluoro-3-[5-(1H-indol-5-yl)-1H-pyrrolo[2,3-b]pyridine-3-carbonyl]-phenyl}-amide] | L (low solubility if the threshold concentration is <31.3 μM) | L (low solubility if the threshold concentration is <31.3 μM) | L (low solubility if the threshold concentration is <31.3 μM) | L (low solubility if the threshold concentration is <31.3 μM)
4 | CCCS(=O)(=O)Nc1ccc(F)c(C(=O)c2c[nH]c3ncc(-c4cccc5nn(C)cc45)cc23)c1F [P-0015, Propane-1-sulfonic acid {2,4-difluoro-3-[5-(2-methyl-2H-indazol-4-yl)-1H-pyrrolo[2,3-b]pyridine-3-carbonyl]-phenyl}-amide] | L (low solubility if the threshold concentration is <31.3 μM) | L (low solubility if the threshold concentration is <31.3 μM) | L (low solubility if the threshold concentration is <31.3 μM) | L (low solubility if the threshold concentration is <31.3 μM)
5 | CCCS(=O)(=O)Nc1ccc(F)c(C(=O)c2c[nH]c3ncc(-c4cnn(C5CCNCC5)c4)cc23)c1F [P-1002, Propane-1-sulfonic acid {2,4-difluoro-3-[5-(1-piperidin-4-yl-1H-pyrazol-4-yl)-1H-pyrrolo[2,3-b]pyridine-3-carbonyl]-phenyl}-amide] | M (moderate solubility if the threshold concentration is 31.3 μM to 250 μM) | M (moderate solubility if the threshold concentration is 31.3 μM to 250 μM) | L (low solubility if the threshold concentration is <31.3 μM) | M (moderate solubility if the threshold concentration is 31.3 μM to 250 μM)
6 | O=C(c1c(F)ccc(NS(=O)(=O)c2ccc(C(F)(F)F)cc2)c1F)c1c[nH]c2ncc(-c3cnn(C4CCNCC4)c3)cc12 [P-1004, N-{2,4-Difluoro-3-[5-(1-piperidin-4-yl-1H-pyrazol-4-yl)-1H-pyrrolo[2,3-b]pyridine-3-carbonyl]-phenyl}-4-trifluoromethyl-benzenesulfonamide] | L (low solubility if the threshold concentration is <31.3 μM) | L (low solubility if the threshold concentration is <31.3 μM) | L (low solubility if the threshold concentration is <31.3 μM) | L (low solubility if the threshold concentration is <31.3 μM)
7 | Cc1ccc(-c2cnc3[nH]cc(C(=O)c4c(F)ccc(NS(=O)(=O)c5cc(F)ccc5F)c4F)c3c2)cn1 [P-1408, N-{2,4-Difluoro-3-[5-(6-methyl-pyridin-3-yl)-1H-pyrrolo[2,3-b]pyridine-3-carbonyl]-phenyl}-2,5-difluoro-benzenesulfonamide] | M (moderate solubility if the threshold concentration is 31.3 μM to 250 μM) | L (low solubility if the threshold concentration is <31.3 μM) | L (low solubility if the threshold concentration is <31.3 μM) | L (low solubility if the threshold concentration is <31.3 μM)
8 | Cc1ncc(-c2cnc3[nH]cc(C(=O)c4c(F)ccc(NS(=O)(=O)c5cc(F)ccc5F)c4F)c3c2)cn1 [P-1503, N-{2,4-Difluoro-3-[5-(2-methyl-pyrimidin-5-yl)-1H-pyrrolo[2,3-b]pyridine-3-carbonyl]-phenyl}-2,5-difluoro-benzenesulfonamide] | L (low solubility if the threshold concentration is <31.3 μM) | L (low solubility if the threshold concentration is <31.3 μM) | L (low solubility if the threshold concentration is <31.3 μM) | M (moderate solubility if the threshold concentration is 31.3 μM to 250 μM)
